Measured values: patent US11129840B2, “Methods for identifying novel dosing regimens” (Zavante Therapeutics, Inc., priority 2017, dated 2021)
Converted amounts (≈) assume the structure as drawn. Read-outs that look alike come from different tables or passages of the source.

Key:
[1] = test system: EC with an ESBL phenotype; assay: Reference agar dilution MIC, resistant SENTRY isolates; assay type: cell-based; settings: Escherichia coli
Procedure: (§1) Utilizing existing interpretative criteria for the marketed oral agent (dosed at 3 g) for analysis purposes, FOS susceptibility (S) was determined for recent resistant GN and GP clinical isolates including vancomycin-resistant Enterococcus faecium (VREM) and E. faecalis (VREF); methicillin-resistant Staphylococcus aureus (MRSA) and MR coagulase negative staphylococci (MR-CoNS), Escherichia coli (EC) and Klebsiella pneumoniae (KPN) containing extended spectrum beta-lactamases (ESBL) or were carbapenem resistant (CR); and), Pseudomonas aeruginosa (PSA) non-susceptible to ceftazidime (CAZ-NS) or to meropenem (MER-NS). […] Isolates were collected from hospitalized patients in the US as a part of the SENTRY surveillance program, 2013-2015.

[2] = test system: MR coagulase negative staphylococci (MR-CoNS); assay: as above; assay type: cell-based
Procedure: as §1

[3] = test system: methicillin-resistant Staphylococcus aureus (MRSA); assay: as above; assay type: cell-based
Procedure: as §1

[4] = test system: vancomycin-resistant Enterococcus faecium (VREM); assay: as above; assay type: cell-based
Procedure: as §1

[5] = test system: EC that were CR; assay: as above; assay type: cell-based, Escherichia coli
Procedure: as §1

[6] = test system: E. coli; assay: Reference agar dilution MIC, ZEUS baseline isolates; assay type: cell-based; settings: 329 E. coli
Procedure: (§2) FOS was tested against 465 GN baseline clinical isolates collected in the cUTI clinical trial. Isolates were susceptibility (S) tested against comparator agents by reference broth microdilution and FOS by reference agar dilution (25 μg/mL glucose-6-phosphate supplementation). Existing FDA FOS breakpoints of ≤64 mg/L for the oral formulation were used for comparative assessments. Screen-positive ESBL Enterobacteriaceae isolates were characterized by whole genome sequencing and analysis for the presence of known β-lactamase genes.

[7] = test system: ESBL-containing E. coli; assay: as above; assay type: cell-based; settings: Escherichia coli; 49 isolates
Procedure: as §2

[8] = test system: ESBL-containing K. pneumoniae; assay: as above; assay type: cell-based; settings: Klebsiella pneumoniae
Procedure: as §2

[9] = test system: ESBL-containing P. mirabilis; assay: as above; assay type: cell-based; settings: Proteus mirabilis; 3 isolates
Procedure: as §2

[10] = test system: Enterobacter cloacae complex; assay: as above; assay type: cell-based
Procedure: as §2

[11] = test system: Enterobacteriaceae; assay: as above; assay type: cell-based
Procedure: as §2

[12] = test system: K. pneumoniae isolates with carbapenemase genes NDM-1 and OXA-48; assay: as above; assay type: cell-based; settings: Klebsiella pneumoniae
Procedure: as §2

[13] = test system: Klebsiella pneumoniae; assay: as above; assay type: cell-based
Procedure: as §2

[14] = test system: Proteus mirabilis; assay: as above; assay type: cell-based; settings: 20 isolates
Procedure: as §2

[15] = test system: Pseudomonas aeruginosa; assay: as above; assay type: cell-based
Procedure: as §2

[16] = test system: Carbapenem-resistant Enterobacteriaceae (CRE) clinical isolates; assay: Susceptibility testing, CRE clinical isolates; assay type: cell-based

In the case of `C[C@@H]1O[C@@H]1P(=O)(O)O` [FOS, fosfomycin], the MIC [1] was greater than 256 µg/mL, the MIC50 ([1]; 49 EC) was 0.5 µg/mL (≈ 3.62 µM) and the MIC90 ([1]; 49 EC) was 4 µg/mL (≈ 29 µM). For the same molecule, the MIC ([1]; remaining isolates, read-out: MIC values) was no more than 32 µg/mL, the MIC ([2]; Staphylococcus capitis) was 128 µg/mL (≈ 927 µM) and the MIC ([2]; Staphylococcus hominis) was greater than 256 µg/mL. The “No. of isolates with FOS MIC≤64 μg/mL” value ([2]; of 153 MR-CoNS) was 72, the MIC50 ([3]; 101 MRSA) was 4 µg/mL (≈ 29 µM) and the MIC90 ([3]; 101 MRSA) was 8 µg/mL (≈ 57.9 µM). For the same molecule, the MIC ([3]; all 101 MRSA) was no more than 64 µg/mL, the MIC90 ([4]; Enterococcus faecium) was 128 µg/mL (≈ 927 µM) and the MIC50 ([4]; Enterococcus faecium, 81 VREM) was 64 µg/mL (≈ 464 µM). For the same molecule, the “No. of isolates with an MIC 64 μg/mL” value ([4]; of 81 VREM) was 63, the MIC range ([5]; 9 of 11 isolates) was 0.5 to 32 µg/mL and the MIC ([5]; Escherichia coli) was greater than 256 µg/mL. The “% S to FOS” value [6] was 100.0%, the MIC50 [7] was 1 µg/mL (≈ 7.24 µM) and the MIC90 [7] was 2 µg/mL (≈ 14.5 µM). The MIC90 [8] was 128 µg/mL (≈ 927 µM), the MIC50 ([8]; 28 isolates) was 16 µg/mL (≈ 116 µM) and the MIC50 [9] was 2 µg/mL (≈ 14.5 µM). The MIC90 [10] was 128 µg/mL (≈ 927 µM), the MIC50 ([10]; 14 isolates) was 16 µg/mL (≈ 116 µM) and the “% of isolates ≤64 mg/L” value [11] was 96.4%. For the same molecule, the MIC50 [11] was 1 µg/mL (≈ 7.24 µM), the MIC90 [11] was 16 µg/mL (≈ 116 µM) and the MIC ([12]; NDM-1 isolate) was 8 µg/mL (≈ 57.9 µM). The MIC ([12]; OXA-48 isolate) was 64 µg/mL (≈ 464 µM), the “% of isolates <64 mg/L” value ([13]; 62 isolates) was 87.1% and the MIC90 ([13]; Klebsiella pneumoniae) was 128 µg/mL (≈ 927 µM). The MIC50 ([13]; Klebsiella pneumoniae, 62 isolates) was 16 µg/mL (≈ 116 µM), the MIC50 [14] was 2 µg/mL (≈ 14.5 µM) and the MIC90 [14] was 32 µg/mL (≈ 232 µM). It also gave an MIC90 [15] of 256 µg/mL (≈ 1850 µM), an MIC50 ([15]; 21 isolates) of 64 µg/mL (≈ 464 µM) and an MIC ([16]; FOS R isolate with fosA2 and SNP in glpT) of 256 µg/mL (≈ 1850 µM). For the same molecule, the MIC ([16]; FOS-R isolate harboring fosA3) was greater than 1020 µg/mL, the “No. of isolates with FOS MIC>64 μg/mL” value ([16]; of 50 isolates) was 3 and the MIC ([16]; third FOS-R isolate (OXA-181+, CTXM-15+Kp)) was 128 µg/mL (≈ 927 µM).
